# In patent US10273279B2, “Protease activated receptor-1 (PAR1) derived cytoprotective polypeptides and related methods” (THE SCRIPPS RESEARCH INSTITUTE, priority 2011, dated 2019):
# Where no end group is shown, it is not given here.
# Legend:
# [1] = tested on: Akt phosphorylation at Ser473 in EA.hy.926 human endothelial cells; assay: Akt Ser473 phosphorylation in EA.hy.926 endothelial cells (in-cell Western); format: cell-based
# Description: (§1) Activated Protein C (APC) cleaves a synthetic PAR1 tail peptide at Arg^41 and Arg^46; furthermore, APC cleaves SEAP-PAR1 mutants with the mutations R41A or R41Q but not SEAP-PAR1 with both R41Q/R46Q mutations. […] It was thus hypothesized that a new PAR1 N-terminus beginning at residue Asn-47 promotes PAR1 signaling and APC cytoprotective activities. Since phosphorylation of signaling network components is useful for monitoring activation of signaling pathways, the effects of synthetic PAR1 peptides on Akt and ERK1/2 phosphorylation in EA.hy.926 human endothelial cells were studied. Cells were treated for 0, 5 or 30 min with peptides prior to cell fixation, permeabilization of cells and subsequent immunoblotting analysis (“in-cell Western blotting”). Relative phosphorylation of Akt at Ser^473 (pSer^473-Akt) or of ERK1/2 at Thr202/204 (pERK1/2) in endothelial cells was quantified using the LI-COR Odyssey infrared (IR) fluorescence imaging system which permits “in cell” Western blots. The Odyssey permits simultaneous quantification of different antibodies that yield either red or green signals.
# (§2) Methods: EA.hy.926 cells (ATCC: CRL-2922) were grown in black clear bottom 96 well plates (Nunc) in DMEM (Invitrogen #12430) supplemented with glutamax (Invitrogen #35050) and 10% FBS (Hyclone #35-011-CV) in a 37° C. cell incubator with a humidified atmosphere and 5% CO2 in air until confluency. Cells were treated for 0, 5 or 30 min with PAR1 peptides TFLL (50 μM), NPND (250 μM) or scr-NPND (250 μM) or with vehicle in serum free media. Subsequently cells were fixed with methanol free 4% para-formaldehyde (Pierce), washed with phosphate buffered saline (PBS; Invitrogen) containing 1% triton X-100 and blocked with Odyssey blocking buffer (Licor). Cells were incubated with rabbit anti-pT202/Y204 ERK1/2 (1/1000; Cell signaling D13.14.4E) or rabbit anti-pSer^473 (1/100; cell signaling D9E) with Odyssey blocking buffer. After washing with PBS/0.1% Tween (1/800), IRDye 800CW-labelled secondary goat anti-rabbit antibodies (Licor) were added to the cells in Odyssey blocking buffer and 1/10,000 Draq5 (Biostatus) for cell normalization. After final washing with PBS/0.1% Tween IR, the fluorescence of bound antibodies was determined using the Odyssey (Licor). Background fluorescence was determined by omitting the primary antibody and subtracting values for controls from all other observed values.
# [2] = tested on: ERK1/2 phosphorylation at Thr202/204 in EA.hy.926 human endothelial cells; assay: ERK1/2 phosphorylation in EA.hy.926 endothelial cells (in-cell Western); format: cell-based
# Description: as §1, §2
# [3] = tested on: EA.hy.926 endothelial cells; assay: Staurosporine-induced endothelial cell apoptosis (Apopercentage dye); format: cell-based, human; settings: 4 hrs pretreatment; 50 μM NPND, 50 μM scr-NPND or 10 μM TFLL; staurosporine 10 μM
# Method: Activated Protein C (APC) conveys anti-apoptotic activity to EA.hy.926 cells that requires functional PAR1 receptor and APC binding to the endothelial protein C receptor (EPCR). See, e.g., Mosnier at al., Biochem J. 2003; 373:65-70; and Mosnier at al., Blood. 2007; 109:3161-3172.
# Methods: EA.hy.926 cells (ATCC: CRL-2922) were grown in 24 well plates in DMEM (Invitrogen #12430) supplemented with glutamax (Invitrogen #35050) and 10% FBS (Hyclone #35-011-CV) in a 37° C. cell incubator with a humidified atmosphere and 5% CO2 in air until confluency. Cells were treated for 4 hrs with vehicle control, 50 μM NPND, 50 μM scr-NPND or 10 μM TFLL after which staurosporine (10 μM) and the Apopercentage dye (Biocolor) were added according the manufacturer's instructions. After 1 hr cells were washed with 2×1 ml PBS and 110 μl of the dye release agent was added to the cells. Subsequently 100 μl aliquots were transferred to a black 96 well plate and fluorescence was measured (530 nm excitation/580 nm emission). Apoptosis was expressed as a percentage of cells treated with 10 mM H2O2 for which apoptosis was set at 100%.
# [4] = tested on: glycogen synthase kinase 3β (GSK3β) phosphorylation at Ser9; assay: GSK3β Ser9 phosphorylation in endothelial cells; format: cell-based, human
# Method: To further confirm activation of Akt by the TR47-66 peptide, Akt-mediated inactivation of glycogen synthase kinase 3β (GSK3β) via phosphorylation at Ser9 was determined. GSK3β is a well-known downstream substrate for Akt.
# SEAP-PAR1 = SEAP-PAR1 cleavage reporter on transfected HEK-293 cells (SEAP release); format: cell-based, human; settings: independent of EPCR
# Description: To facilitate analysis of APC-mediated PAR-1 activation, we created a full-length PAR-1 construct linked at the N-terminus to an alkaline phosphatase reporter group (SEAP). Selection of stable cell lines expressing both endothelial protein C receptor (EPCR) (wt or E86A) and SEAP-PAR1 allowed for a reliable and reproducible analysis of EPCR-dependent PAR-1 activation by APC. Mass-spec analysis of cleavage fragments generated by APC of a synthetic PAR-1 N-terminal tail peptide (TR33-62) identified both Arg^41 and Arg^46 as potential cleavage sites for APC proteolysis, as noted above. […] R41Q-SEAP-PAR1 was cleaved by APC in the presence of EPCR. This surprising result was also obtained for R41A-SEAP PAR1.
# 2009; 113:5970-5978. SEAP-PAR1, either in the presence or absence of wt-EPCR, were transfected into HEK-293 cells to obtain stable cells expressing SEAP-PAR1 or wt-EPCR/SEAP-PAR1. Mutations in SEAP-PAR1 were introduced using the Quickchange method (Agilent). Cells were grown in 96-wells plates to confluency in Dulbeco's modified Eagle media (DMEM): Ham's F-12 (Invitrogen) supplemented with penicillin-streptomycin-glutamine (PSG) (Gibco) and 10% fetal bovine serum (Omega) in a humidified atmosphere at 37° C. and 5% CO2 Cells were washed with Hank's balanced salt solution (HBSS; Invitrogen) supplemented with 1.3 mM CaCl2, 0.6 mM MgCl2 and 0.1% endotoxin free BSA (Calbiochem) and incubated with APC. After 60 min, SEAP release was determined using 1-step PNPP (Pierce). Values were corrected for background activity derived from the same cells incubated in the absence of APC and expressed as a percentage of total SEAP available on the cell membrane.
# [5] = 0, 5 or 30 min, TFLL 50 μM, NPND 250 μM, scr-NPND 250 μM
molecule,measurement,setting,value
TFLLRNPNDK (not fully specified) [reference compound],pSer473-Akt (Akt phosphorylation),[1]; [5],essentially no effect
same,Ser473-Akt phosphorylation (activation of Akt),"[1]; Example 7, under the employed experimental conditions",neither thrombin nor TRAP induced
same,ERK1/2 phosphorylation (pERK1/2),[2]; [5],quickly but transiently stimulated
same,activation of ERK1/2,[2]; Example 7,did so
same,inhibition of staurosporine-induced endothelial cell apoptosis,[3],did not convey detectable anti-apoptotic effects
same,phosphorylation of GSK3β at Ser9,[4]; Example 7,did not result in Ser9-GSK3β phosphorylation
elastase [reference compound],cleavage of all PAR1 constructs on cells,SEAP-PAR1,cleaved all PAR1 constructs on cells with similar efficacy
CC(C)c1ccc(Cn2ccc3c4c(N)nc(NC5CC5)nc4ccc32)cc1 [SCH79797],effect on TR47-66-induced Ser9-GSK3β phosphorylation,[4]; PAR1 antagonist added to TR47-66,inhibited
